Source: PMC6270163, “Anti-inflammatory Lignans from the Fruits of Acanthopanax sessiliflorus” (Molecules, 2012)
Read-outs that look alike come from different tables or passages of the source.

Legend:
[1] = in vitro; settings: mouse
[2] = tested on: LPS-induced NO production in RAW 264.7 macrophage cells; experiment: Inhibition of LPS-induced NO production (nitrite, Griess reagent); settings: pretreated 1 h with compounds, then LPS (1 μg/mL) for 24 h, mean ± SD, three independent experiments
Method: Assays for NO production and cell viability were carried out as previously described [23]. […] The plates were pretreated with various concentrations of samples for 30 min and incubated with LPS (1 μg/mL) for 24 h. The amount of NO was determined by the nitrite concentration in cultured RAW264.7 macrophage supernatants using the Griess reagent. The cell viability was evaluated by MTT reduction.

[3] = tested on: RAW 264.7 macrophages; experiment: Cell viability by MTT reduction; settings: for Cell toxicity / influence on cell viability (in words): RAW 264.7 cells treated with compounds
[4] = Mus musculus, RAW264.7, read-out: IC50 (concentration that caused 50% inhibition of NO production), LPS-activated RAW 264.7 macrophage cells
[5] = read-out: IC50 (concentration that caused 50% inhibition of NO production), LPS-activated RAW 264.7 macrophage cells

Row | Compound | viability at 24 h, 100 µM [1] [%] | IC50 [2, 4] [µM] | IC50 [2, 5] [µM] | viability at 24 h, 100 µM ([1]; RAW 264.7 macrophages) [%] | Cell toxicity / influence on cell viability (in words) [3] | Cell viability (%) ([3]; RAW 264.7 cells, at a concentration of 100 μM, MTT reduction, mean ± SD, three independent experiments)
1 | c1cc2c(cc1[C@@H]1OCC3C1CO[C@H]3c1ccc3c(c1)OCO3)OCO2 (single isomer, unassigned; (-)) [Compound 2, (−)-sesamin] | 95.5 ± 2.01 | 49.9 to 65.1 | 38.9 ± 2.86 | – | – | –
2 | COc1cc(OC)cc([C@@H](O)[C@H]2COC[C@@H]2Cc2ccc(O)c(O)c2)c1 [Compound 1, 3-(3',4'-dihydroxybenzyl)-4-[(7S),7-hydroxy-3,5-dimethoxybenzyl]tetrahydrofuran] | – | 49.9 ± 6.56 | – | 84.8 ± 2.71 | – | –
3 | COc1cc([C@H]2OC[C@H]3[C@@H]2CO[C@@H]3c2ccc3c(c2)OCO3)ccc1O [Compound 7, (+)-xanthoxylol] | – | 27.6 | 21.6 ± 1.28 | 88.4 ± 3.71 | – | –
4 | COc1cc([C@H]2OC[C@@H]3[C@H]2CO[C@H]3c2ccc3c(c2)OCO3)ccc1O [Compound 6, (+)-piperitol] | – | 22.3 ± 1.1 | – | 84.1 ± 2.46 | – | –
5 | COc1cc([C@H]2OC[C@H]3[C@@H]2CO[C@@H]3c2ccc3c(c2)OCO3)ccc1O[C@@H]1O[C@H](CO)[C@@H](O)[C@H](O)[C@H]1O [Compound 9, simlexoside] | – | 53 ± 2.75 | – | 54.5 ± 2.21 | Some cell toxicity was observed | –
6 | O=C1OC[C@H](Cc2ccc3c(c2)OCO3)[C@H]1Cc1ccc2c(c1)OCO2 [Compound 3, (−)-hinokinin] | – | 21.6 ± 1.19 | – | 50.2 ± 1.55 | Some cell toxicity was observed | –
7 | N=C(N)NN [Aminoguanidine, reference compound] | – | – | 6.51 ± 1.15 | – | – | 84.61 ± 2.50
8 | COc1cc([C@H]2OC[C@H]3[C@@H]2CO[C@@H]3c2cc(OC)c(O[C@@H]3O[C@H](CO)[C@@H](O)[C@H](O)[C@H]3O)c(OC)c2)cc(OC)c1O [Compound 8, acanthoside B] | 82.4 ± 1.27 | – | – | – | – | –
9 | (+)-pinoresinol [Compound 5] | – | – | 10.3 ± 2.37 | – | – | –
